What was measured:
[1] = target: T1, MCL-1–BIM complexes (Homo sapiens, UniProt Q07820); assay: MCL-1/BIM co-immunoprecipitation and immunoblot in H929 cells; format: cell-based; settings: 10 μM, 4 h
T1 construct: endogenous in cells; host or cells: H929
Protocol: Figure 1 MCL-1 levels are elevated in cancer cells after treatment with MCL-1-binding small molecules. (a) H929 multiple myeloma cells were treated for 4 h with 10 μM A-1210477 before immunopreciptating MCL-1. […] A control H929 lysate was run in lane 1, and an immunoprecipitation with a non-specific antibody (Ig) was run in lane 2. The positions of molecular weight markers (specified in kiloDaltons) are indicated on the left. (b) HCC-1806 breast cancer cells were incubated with increasing concentrations of A-1210477 (0.1, 0.5, 1, 5, 10, 15, or 20 μM) or bortezomib (2, 10, or 50 nM) for 8 h before assessing MCL-1 and NOXA levels by immunoblotting. β-Actin was probed as a protein loading control. The lower graph depicts reverse transcriptase-PCR quantification of MCL1 mRNA from HCC-1806 cells treated for 8 h with similar concentrations of A-1210477. (c) HCC-1806 cells were incubated with increasing concentrations (0.1, 0.5, 1, 5, 10, and 20 μM) of A-954248, A-962653, or A-1248767 for 24 h before assessing MCL-1 and BCL-XL levels by immunoblotting. β-Actin was probed as a protein loading control
Antibodies for MCL-1-BIM co-immunoprecipitation studies were obtained from Thermo Fisher Scientific (Waltham, MA, USA; anti-MCL-1 clone RC13) and Abcam (Cambridge, MA, USA; anti-BIM clone Y36). […]

[2] = target: T2, BCL-XL–BCL-XS interactions (Homo sapiens, UniProt Q07817); assay: Mammalian two-hybrid assay, BCL-XL–BCL-XS, HeLa cells; format: cell-based; settings: 24 h, luciferase two-hybrid
T2 construct: expressed in transfected cells; host or cells: HeLa cells stably expressing a GAL4-luciferase reporter
Protocol: (a) H929 cells were treated with increasing concentrations of A-1210477 for 4 h. […] All data represent the mean of triplicate experiments, with error bars indicating the S.D. (b) Quantitative measurement of protein–protein interactions using a luciferase-based mammalian two-hybrid assay. […] All data represent the means of triplicate experiments, with error bars indicating the S.Ds.
HeLa cells stably expressing a GAL4-luciferase reporter were seeded into 10 cm dishes at 5 × 10^5 cells per plate. In all, 24 μg of a plasmid expressing both the ‘bait' and ‘prey' fusion proteins (GAL4DBD-BIM and VP16AD-BCL-2, GAL4DBD-BCL-XL and VP16AD- BCL-XS, or GAL4DBD-MCL-1 and VP16AD-NOXA, respectively) were mixed with 1.5 ml OptiMEM (Invitrogen). Separately, 24 μl Lipofectamine 2000 (Invitrogen) were mixed with 1.5 ml OptiMEM. Both solutions were incubated for 5 min (RT) and then mixed together for 20 min. Three milliliters of the mixture was added to cells in 12 ml culture medium lacking antibiotics, incubated at 37 °C for 24 h, and then transferred to 96-well plates at 20 000 cells per well. Compounds were added in half-log dilutions, starting from 1 μM and ending at 0.0001 μM for 24 h, and luciferase activity was assessed using ONE-Glo reagent (Promega). All data were plotted as the percentage of complex remaining relative to untreated controls.

[3] = system: H929 cells; assay: Hallmarks of apoptosis in H929 cells (caspase-3/-7, mitochondrial membrane depolarization, phosphatidylserine); format: cell-based, human; settings: H929, 4 h
Protocol: Figure 4 Indole-2-carboxylic acids induce the hallmarks of apoptosis in MCL-1-dependent cancer cell line H929. (a) Digitonin-permeabilized H929 cells were treated with 10 μM BH3 peptides for 4 h, and intact H929 cells were incubated with increasing concentrations (0.1–10 μM) of A-1208746 for 4 h before assessing the levels of cytochrome c released into the cytosol. (b) H929 and RS4;11 cells were incubated with increasing concentrations of MCL-1 inhibitors or the BCL-2-selective inhibitor ABT-199 (venetoclax) for 48 h before determining cell viability. Cell killing IC50s are plotted with each value representing the mean of three separate experiments. […]
H929 cells were cultured in RPMI 1640 (Invitrogen Corp., Grand Island, NY, USA) supplemented with 10% fetal bovine serum (Invitrogen), 1% sodium pyruvate, 25 mM HEPES, 4.5 g/l glucose, and 1% penicillin/streptomycin (Sigma) and maintained in a humidified chamber at 37 °C containing 5% CO2. […] Following treatment, the hallmarks of apoptosis (activation of caspase-3/-7, mitochondrial membrane depolarization, and phosphatidylserine externalization) were measured using the IntelliCyt (Albuquerque, NM, USA) MultiCyt 4-Plex Apoptosis Screening Kit according to the manufacturer's instructions and read by flow cytometry using a HTFC screening system (IntelliCyt). […] Data were expressed as the percentage of singlet cells. […]

[4] = target: MCL-1 (Homo sapiens, UniProt Q07820); set-up: endogenous in cells; host or cells: HCC-1806; method as in PMID 25679114; settings: in the presence of 10% human serum; cited from earlier work
Chain of MCL-1 (Q07820 whole entry): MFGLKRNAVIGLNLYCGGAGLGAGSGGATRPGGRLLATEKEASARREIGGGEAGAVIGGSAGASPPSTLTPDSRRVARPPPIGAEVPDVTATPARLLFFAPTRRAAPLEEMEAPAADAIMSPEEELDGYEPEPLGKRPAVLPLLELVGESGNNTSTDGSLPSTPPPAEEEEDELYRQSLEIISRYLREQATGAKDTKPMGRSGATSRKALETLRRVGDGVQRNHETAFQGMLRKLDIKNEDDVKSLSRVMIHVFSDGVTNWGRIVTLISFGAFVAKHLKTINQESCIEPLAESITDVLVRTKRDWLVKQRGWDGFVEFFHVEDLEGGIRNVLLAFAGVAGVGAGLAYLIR

T1 sequence (Q07820 whole entry, one chain of several): as the sequence (Q07820 whole entry) above
T2 sequence (Q07817 whole entry, the tested form may be a part): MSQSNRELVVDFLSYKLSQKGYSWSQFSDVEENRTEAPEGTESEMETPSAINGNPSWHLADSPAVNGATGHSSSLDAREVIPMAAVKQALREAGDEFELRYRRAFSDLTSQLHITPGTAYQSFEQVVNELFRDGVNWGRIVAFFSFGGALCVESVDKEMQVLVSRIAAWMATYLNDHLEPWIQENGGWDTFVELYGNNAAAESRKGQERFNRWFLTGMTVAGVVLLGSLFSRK

Question: Which “BIM co-immunoprecipitated with MCL-1 antibody” value [1] does the source give for Cc1nn(C)c(COc2ccc(N3CCN(S(=O)(=O)N(C)C)CC3)cc2)c1-c1cccc2c(CCCOc3cccc4ccccc34)c(C(=O)O)n(CCN3CCOCC3)c12 [A-1210477] here?
Answer: Its value is “reduce the amount of BIM co-immunoprecipitated”.

Question: And the “effect on BCL-XL–BCL-XS interactions” value [2]?
Answer: Its value is “no effect”.

Question: What about the “induction of hallmarks of apoptosis (mitochondrial membrane depolarization, caspase-3/-7 activation, phosphatidylserine externalization)” value [3] of the same compound?
Answer: The value was “induced the hallmarks of apoptosis”.

Question: What about the “shift in MCL-1 affinity” value [4] of the same compound?
Answer: The value was > 15 fold.
